Reference: article PMC5618341, “Controlled inhibition of methyltransferases using photoswitchable peptidomimetics: towards an epigenetic regulation of leukemia” (Chemical Science, 2017)
Read-outs that look alike come from different tables or passages of the source. Starred links: 1 amine or outer side, 2 acyl side, 3 side chain; linkers in the order of their positions; H or OH if unused. Non-standard residues stand in square brackets, D forms with d. Residues, ends and D or L forms follow the SMILES beside them. AMPB = O=C(c1ccc(N=Nc2ccc(CN[*:1])cc2)cc1)[*:2]; Ahx = NCCCCCC(=O)O; βAla = NCCC(=O)O

Experiments:
WDR5Δ23 [1] = molecular target: T1, WDR5Δ23 (Homo sapiens, UniProt P61964); parameters: method as in PMID 20575550; settings: interaction with WDR5; cited from earlier work
T1 construct: His6-SUMO (N, cleaved yes); made in house; host or cells: E. coli DH5α (so in the source)

WDR5Δ23 [2] = molecular target: T1, WDR5Δ23; experiment: Fluorescence polarization (FP)-based competitive binding assay
[3] = Stability against GSH reduction; assay type: physicochemical; settings: 10 mM GSH, four days, kept in the dark
Experimental: (§1) We then examined the potential of 16 and 17 to control externally the cellular response in proliferation assays. Thus, both isomers of both peptidomimetics were incubated at different concentrations for four days. After two days of incubation, the cells containing the cis isomers were irradiated at 430 nm for 90 seconds in a single isomerization cycle with a custom-made 6-well plate LED array.
H-bond cut off < 3.5 Å, Van der Waals: […]. N 3.81
Evaluation of Stability against GSH-reduction of Peptides
To test the stability of the AMPB-containing peptides 16 and 17 against reduction by glutathione (GSH), the peptides were incubated with GSH for 4 days.
Figure S72. Left: HPLC chromatograms of peptides, incubated with 10 mM GSH, recorded after different time periods. Left: peptide 16. Right: peptide 17. […]
peptides 16 and 17 (10 μM) in 0.1 M phosphate buffer pH = 7 were mixed giving final concentrations of 10 mM of GSH and 9.6 μM of the peptides, respectively. After different time periods, HPLC chromatograms of these mixtures were recorded (gradient: 5-40% B) (Figure […]
In Vitro Methyl Transferase Assay with MLL1 Core Complex
Full length constructs of both, RbBP5 (residues 1−538) and Ash2L (residues 1−635), were used for expression. […] MLL1, WDR5, RbBP5, and ASH2L were expressed as His-SUMO fusions from the pET28A-SUMO vector in BL21 DE3 pLyss codon (+) cells at 16 °C overnight. […]

[4] = tested on: Deptor gene (MLL1 target gene); experiment: Real-time PCR of Deptor mRNA expression; assay type: cell-based, mouse; settings: 10 μM, 96 h, RT-PCR, standardized to GAPDH, vs Mock
Description: Finally, we tested whether our probe acts as an optoepi-genetic inhibitor and controls expression of MLL1 target genes. We used the Deptor gene as a reporter, given its importance in hematopoiesis and leukemogenesis,[51],[52] as well as significant regulation by MLL1 inhibition.[53] To this end, we examined Deptor expression by real-time PCR (RT-PCR). […] Of note, a small but significant (p = 0.008) difference between cis and trans isomers was observed. […] There is no statistically significant difference between cis isomer of 17 and the control.
Fig. 8 Relative Deptor mRNA expression levels in murine MLL-AF9-transduced mouse bone marrow cells after 96 h of incubation at 10 μM; they were analysed by RT-PCR and standardized to the endogenous GAPDH control. The significance is corroborated by the p-value.
Real Time Quantitative PCR Analysis of Deptor Gene
Murine MLL1-AF9 transformed bone marrow cells were obtained by transducing normal murine bone marrow cells with MLL1-AF9 oncogene according to the procedures described […]
100 mM stock) isomers, of peptides 7, 16, 17, as well as the peptides 18 and 19 were […]
The transformed cells were treated with different concentrations of the respective peptide (1.0, 5.0, 10 μM) and Mock (0.1% DMSO), giving a final concentration of 0.1% DMSO in all the samples. […] Relative quantification of each gene transcript was carried out as described previously.[28] […]

[5] = Proliferation / cell viability assay (CellTiter-Glo); assay type: cell-based, mouse; settings: trans isomer, 2.5 μM concentration, 96 h; read-out: viable cells
Experimental: We initially studied the cellular uptake and cell viability of our compounds in murine MLL-AF9-transduced mouse bone marrow cells (Fig. 5). In line with our expectations, peptidomimetics 16 and 17 that contained peptide 7 within their sequence are the ones that inhibited the cell proliferation of leukemia. […] Thus, while in the case of the trans isomer of peptidomimetic 16 we already determined less than 50% of viable cells at 2.5 μM concentration, with the WIN-containing conjugates 20 and 21 we measured 87% and 96% of viable cells at 50 μM concentration, respectively.
as §1
MLL-AF9-transduced mouse bone marrow was cultured in IMDM medium + 15% FBS and supplemented with 10 ng/mL interleukin-3 (IL-3) at each passage, every other day.
DMSO) isomers, of peptides 7, 16, 17, as well as the peptides 18 and 19 were diluted from stock to culture media containing a 0.1% DMSO final concentration. For viability assays, […]
72 h and DMSO as control . For the cis-trans group, after 48 h treatment with cis peptides, the plate was irradiated at […] for 90 sec and continued to culture for 2 days in the dark.
Viability was determined using the CellTiter-Glo Kit (Promega) according to the a a ’ d . was monitored on a Molecular Devices plate reader.

[6] = molecular target: MLL1 core complex (MLL1, WDR5, RbBP5, and ASH2L) (Homo sapiens, UniProt P61964); settings: cis vs trans
Experimental: To test this, we studied the inhibition of MLL1 H3K4 methyltransferase activity through the previously reported in vitro HMT assay using the MLL1 core complex (i.e. MLL1, WDR5, RbBP5, and ASH2L) and the H3 20mer peptide as substrate.[17]
In Vitro Histone Methyltransferase (HMT) Assay
The HMT assay was performed, as previously described[25] with slight modifications, in 50 mM Tris pH 8.0, 50 mM NaCl, 1.0 mM DTT, 5 mM MgCl2 at room temperature. Each reaction contained 1.5 μM of the cofactor 3H-S-adenosylmethionine (Perkin-Elmer). H31-21 peptide was used as the substrate at 250 μM. […] Reactions were initiated by addition of the H3/SAM and allowed to proceed for 60 min before preparing scintillation counting. To count samples, reactions were spotted on separate squares of P81 filter paper (Millipore) and precipitated by submerging in freshly prepared 50 mM sodium bicarbonate buffer pH = 9.0. After washing and drying, the samples were vortexed in Ultima Gold scintillation fluid and counted.

[7] = non-irradiated peptide (trans isomer), 72 nM WDR5Δ23, 20 nM tracer 22, read-out: IC50, non-irradiated (trans)
[8] = non-irradiated peptide (trans isomer), 72 nM WDR5Δ23, 20 nM tracer 22, read-out: Ki, non-irradiation (trans)

Molecule | IC50 (WDR5Δ23 [2]; [7]) [nM] | Ki (WDR5Δ23 [2]; [8]) [nM] | stability of cis isomer against glutathione [3] | Deptor mRNA expression (in words) [4] | other results
Ac-ARAEVHLRKS-NH2 [peptide 2] | – | – | – | – | Ki (WDR5Δ23 [1]): 3 nM
CC(C)C[C@H](NC(=O)[C@H](Cc1c[nH]cn1)NC(=O)[C@@H](NC(=O)c1ccc(N=Nc2ccc(CNC(=O)[C@H](C)NC(=O)[C@H](CCCNC(=N)N)NC(=O)[C@H](C)NC(=O)[C@@H](N)CO)cc2)cc1)C(C)C)C(=O)N[C@@H](CCCNC(=N)N)C(=O)N[C@@H](CCCCN)C(=O)N[C@@H](CO)C(=O)N[C@@H](CCCNC(=N)N)C(=O)NCCCCCC(=O)N[C@@H](CCCNC(=N)N)C(=O)N[C@@H](CCCNC(=N)N)C(=O)NCCCCCC(=O)N[C@@H](CCCNC(=N)N)C(=O)N[C@@H](CCCNC(=N)N)C(=O)NCCCCCC(=O)N[C@@H](CCCNC(=N)N)C(=O)N[C@@H](CCCNC(=N)N)C(=O)NCCCCCC(=O)N[C@@H](CCCNC(=N)N)C(=O)NCCCCCC(=O)NCCC(N)=O [peptide 17, H2N-SARA-AMPB-VHLRKS-(RahxR)4RAhxB-NH2] (H-SARA[AMPB]VHLRKSR[Ahx]RR[Ahx]RR[Ahx]RR[Ahx]R[Ahx][βAla]-NH2) | 120 ± 25 | 0.925 ± 0.39 | suitable cis/trans ratio | – | –
N=C(N)NCCC[C@H](NC(=O)[C@H](CCCNC(=N)N)NC(=O)[C@H](CCCNC(=N)N)NC(=O)[C@H](CCCNC(=N)N)NC(=O)[C@H](CCCNC(=N)N)NC(=O)[C@H](CCCNC(=N)N)NC(=O)[C@H](CCCNC(=N)N)NC(=O)[C@@H](N)CCCNC(=N)N)C(N)=O [peptide 18] | – | – | – | not affected | –
CC(C)C[C@H](NC(=O)[C@H](Cc1c[nH]cn1)NC(=O)[C@@H](NC(=O)c1ccc(N=Nc2ccc(CNC(=O)[C@H](C)NC(=O)[C@H](CCCNC(=N)N)NC(=O)[C@H](C)NC(=O)[C@@H](N)CO)cc2)cc1)C(C)C)C(=O)N[C@@H](CCCNC(=N)N)C(=O)N[C@@H](CCCCN)C(=O)N[C@@H](CO)C(=O)N[C@@H](CCCNC(=N)N)C(=O)N[C@@H](CCCNC(=N)N)C(=O)N[C@@H](CCCNC(=N)N)C(=O)N[C@@H](CCCNC(=N)N)C(=O)N[C@@H](CCCNC(=N)N)C(=O)N[C@@H](CCCNC(=N)N)C(=O)N[C@@H](CCCNC(=N)N)C(=O)N[C@@H](CCCNC(=N)N)C(N)=O [peptide 16, H2N-SARA-AMPB-VHLRKS-R8-NH2] (H-SARA[AMPB]VHLRKSRRRRRRRR-NH2) | 135 ± 5 | 1.18 ± 0.095 | suitable cis/trans ratio | – | viability at 2.5 µM [5]: < 50%
N=C(N)NCCC[C@H](NC(=O)CCCCCNC(=O)[C@H](CCCNC(=N)N)NC(=O)[C@H](CCCNC(=N)N)NC(=O)CCCCCNC(=O)[C@H](CCCNC(=N)N)NC(=O)[C@H](CCCNC(=N)N)NC(=O)CCCCCNC(=O)[C@H](CCCNC(=N)N)NC(=O)[C@H](CCCNC(=N)N)NC(=O)CCCCCNC(=O)[C@@H](N)CCCNC(=N)N)C(=O)NCCCCCC(=O)NCCC(N)=O [peptide 19] (H-R[Ahx]RR[Ahx]RR[Ahx]RR[Ahx]R[Ahx][βAla]-NH2) | – | – | – | not affected | –
CC(C)C[C@H](NC(=O)[C@H](Cc1c[nH]cn1)NC(=O)[C@@H](NC(=O)c1ccc(N=Nc2ccc(CNC(=O)[C@H](C)NC(=O)[C@H](CCCNC(=N)N)NC(=O)[C@H](C)NC(=O)[C@@H](N)CO)cc2)cc1)C(C)C)C(=O)N[C@@H](CCCNC(=N)N)C(=O)N[C@@H](CCCCN)C(=O)N[C@@H](CO)C(N)=O [peptide 7, H2N-SARAXVHLRKS-CONH2] (H-SARA[AMPB]VHLRKS-NH2) | 146 ± 21 | 1.25 ± 0.36 | – | – | IC50 (WDR5Δ23 [2]; IC50 cis (with 5 nM tracer), cis isomer (366 nm), 20 nM WDR5Δ23, 5 nM tracer 22): 147 ± 14 nM; IC50 (WDR5Δ23 [2]; IC50 trans (with 5 nM tracer), trans isomer, 20 nM WDR5Δ23, 5 nM tracer 22): 57 ± 11 nM; Ki (WDR5Δ23 [2]; Ki cis (with 5 nM tracer), cis isomer (366 nm), 20 nM WDR5Δ23, 5 nM tracer 22): 6.37 ± 1 nM; Ki (WDR5Δ23 [2]; Ki trans (with 5 nM tracer), trans isomer, 20 nM WDR5Δ23, 5 nM tracer 22): 2.03 ± 0.42 nM; difference in IC50 between both isomers [6]: more than 15 fold
